Assay results taken from patent publication US8293770B2, “Pyrrolidine derivatives as NK-3 receptor antagonists” (Hoffmann-La Roche Inc., priority 2008, dated 2012).

How the values were obtained:
[1] = target: T1, recombinant human NK3 receptor (Homo sapiens, UniProt P29371); test: [3H]SR142801 competition binding assay; conditions: hNK3 receptor binding, [3H]SR142801, membranes from HEK293 cells transiently expressing recombinant human NK3 receptor
T1 construct: expressed in transfected cells; host or cells: HEK293 cells (transient expression), membranes
T1 sequence (P29371 1-465): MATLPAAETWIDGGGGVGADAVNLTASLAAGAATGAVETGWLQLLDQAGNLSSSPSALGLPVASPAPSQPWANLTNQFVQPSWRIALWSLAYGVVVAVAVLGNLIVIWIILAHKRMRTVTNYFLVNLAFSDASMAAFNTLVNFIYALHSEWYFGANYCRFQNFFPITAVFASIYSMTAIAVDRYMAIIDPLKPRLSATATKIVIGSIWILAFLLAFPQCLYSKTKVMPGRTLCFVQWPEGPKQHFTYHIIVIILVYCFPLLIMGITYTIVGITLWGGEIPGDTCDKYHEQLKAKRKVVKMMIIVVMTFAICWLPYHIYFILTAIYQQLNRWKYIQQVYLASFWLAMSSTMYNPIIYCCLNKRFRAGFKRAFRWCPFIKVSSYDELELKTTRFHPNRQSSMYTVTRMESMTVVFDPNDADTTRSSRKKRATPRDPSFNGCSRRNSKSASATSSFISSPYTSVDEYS
Description: [^3H]SR142801 competition binding assay
hNK3 receptor binding experiment were performed using [^3H]SR142801 (Catalog No. TRK1035, specific activity: 74.0 Ci/mmol, Amersham, GE Healthcare UK limited, Buckinghamshire, UK) and membrane isolated from HEK293 cells transiently expressing recombinant human NK3 receptor. After thawing, the membrane homogenates were centrifuged at 48,000×g for 10 min at 4° C., the pellets were resuspended in the 50 mM Tris-HCl, 4 mM MnCl2, 1 μM phosphoramidon, 0.1% BSA binding buffer at pH 7.4 to a final assay concentration of 5 μg protein/well. […] At the end of the incubation, membranes were filtered onto unitfilter (96-well white microplate with bonded GF/C filter preincubated 1 h in 0.3% PEI+0.3% BSA, Packard BioScience, Meriden, Conn.) with a Filtermate 196 harvester (Packard BioScience) and washed 4 times with ice-cold 50 mM Tris-HCl, pH 7.4 buffer. Nonspecific binding was measured in the presence of 10 μM SB222200 for both radioligands. The radioactivity on the filter was counted (5 min) on a Packard Top-count microplate scintillation counter with quenching correction after addition of 45 μl of microscint 40 (Canberra Packard S. A., Zürich, Switzerland) and shaking for 1 h. Inhibition curves were fitted according to the Hill equation: y=100/(1+(x/IC50)^nH), where nH=slope factor using Excel-fit 4 software (Microsoft). IC50 values were derived from the inhibition curve and the affinity constant (Ki) values were calculated using the Cheng-Prussoff equation Ki=IC50/(1+[L]/KD) where [L] is the concentration of radioligand and KD is its dissociation constant at the receptor, derived from the saturation isotherm. All experiments were performed in duplicate and the mean±standard error (SEM) of the individual Ki values was calculated.

[2] = phase II trial, cited from earlier work

Row | Ki [1] [nM] | Structure (SMILES) | activity on positive symptoms of schizophrenia ([2]; altered behavior, delusion, hallucinations, extreme emotions, excited motor activity, incoherent speech) | activity in the treatment of negative symptoms ([2]; depression, anhedonia, social isolation or memory and attention deficits)
1 | 5.6 | CN(Cc1ccc(C(F)(F)F)c(F)c1)[C@H]1CN(C(=O)c2ccc(-c3cccnc3)cc2)C[C@@H]1c1ccc(Cl)c(Cl)c1 (racemic) [Example 44, {(3SR,4RS)-3-(3,4-Dichloro-phenyl)-4-[(3-fluoro-4-trifluoromethyl-benzyl)-methyl-amino]-pyrrolidin-1-yl}-(4-pyridin-3-yl-phenyl)-methanone] |  | 
2 | 2.5 | CN(Cc1ccc(C(F)(F)F)c(F)c1)[C@H]1CN(C(=O)c2ccc(-c3ccncc3)cc2)C[C@@H]1c1ccc(Cl)c(Cl)c1 (racemic) [Example 45, {(3SR,4RS)-3-(3,4-Dichloro-phenyl)-4-[(3-fluoro-4-trifluoromethyl-benzyl)-methyl-amino]-pyrrolidin-1-yl}-(4-pyridin-4-yl-phenyl)-methanone] |  | 
3 | 2.3 | CN(Cc1ccc(C(F)(F)F)c(F)c1)[C@H]1CN(C(=O)c2ccc(-c3nnco3)cc2)C[C@@H]1c1ccc(Cl)c(Cl)c1 (racemic) [Example 47, {(3SR,4RS)-3-(3,4-Dichloro-phenyl)-4-[(3-fluoro-4-trifluoromethyl-benzyl)-methyl-amino]-pyrrolidin-1-yl}-(4-[1,3,4]oxadiazol-2-yl-phenyl)-methanone] |  | 
4 | 47.8 | CN(Cc1ccc(C(F)(F)F)c(F)c1)[C@H]1CN(C(=O)c2ccc(O)nc2)C[C@@H]1c1ccc(Cl)c(Cl)c1 (racemic) [Example 48, {(3SR,4RS)-3-(3,4-Dichloro-phenyl)-4-[(3-fluoro-4-trifluoromethyl-benzyl)-methyl-amino]-pyrrolidin-1-yl}-(6-hydroxy-pyridin-3-yl)-methanone] |  | 
5 | 14.6 | CN(Cc1ccc(C(F)(F)F)c(F)c1)[C@H]1CN(C(=O)c2ccc3cnccc3n2)C[C@@H]1c1ccc(Cl)c(Cl)c1 (racemic) [Example 51, {(3SR,4RS)-3-(3,4-Dichloro-phenyl)-4-[(3-fluoro-4-trifluoromethyl-benzyl)-methyl-amino]-pyrrolidin-1-yl}-[1,6]naphthyridin-2-yl-methanone] |  | 
6 | 22.3 | COc1ncc(C(=O)N2C[C@H](c3ccc(Cl)c(Cl)c3)[C@@H](N(C)Cc3ccc(C(F)(F)F)c(F)c3)C2)cn1 (racemic) [Example 57, {(3SR,4RS)-3-(3,4-Dichloro-phenyl)-4-[(3-fluoro-4-trifluoromethyl-benzyl)-methyl-amino]-pyrrolidin-1-yl}-(2-methoxy-pyrimidin-5-yl)-methanone] |  | 
7 | 31.8 | CN(Cc1ccc(C(F)(F)F)c(F)c1)[C@H]1CN(C(=O)c2ccc3nn[nH]c3c2)C[C@@H]1c1ccc(Cl)c(Cl)c1 (racemic) [Example 59, (3H-Benzotriazol-5-yl)-{(3SR,4RS)-3-(3,4-dichloro-phenyl)-4-[(3-fluoro-4-trifluoromethyl-benzyl)-methyl-amino]-pyrrolidin-1-yl}-methanone] |  | 
8 | 17.3 | CN(Cc1ccc(C(F)(F)F)c(F)c1)[C@H]1CN(C(=O)c2ccc3nc[nH]c3c2)C[C@@H]1c1ccc(Cl)c(Cl)c1 (racemic) [Example 60, (3H-Benzoimidazol-5-yl)-{(3SR,4RS)-3-(3,4-dichloro-phenyl)-4-[(3-fluoro-4-trifluoromethyl-benzyl)-methyl-amino]-pyrrolidin-1-yl}-methanone] |  | 
9 | 37.3 | CC(=O)Nc1ccc(C(=O)N2C[C@H](c3ccc(Cl)c(Cl)c3)[C@@H](N(C)Cc3ccc(C(F)(F)F)c(F)c3)C2)cc1 (racemic) [Example 61, N-(4-{(3SR,4RS)-3-(3,4-Dichloro-phenyl)-4-[(3-fluoro-4-trifluoromethyl-benzyl)-methyl-amino]-pyrrolidine-1-carbonyl}-phenyl)-acetamide] |  | 
10 | 24.7 | CN(Cc1ccc(C(F)(F)F)c(F)c1)[C@H]1CN(C(=O)c2ccc(N3CCN(C(=O)OC(C)(C)C)CC3)nc2)C[C@@H]1c1ccc(Cl)c(Cl)c1 (racemic) [Example 63, 4-(5-{(3SR,4RS)-3-(3,4-Dichloro-phenyl)-4-[(3-fluoro-4-trifluoromethyl-benzyl)-methyl-amino]-pyrrolidine-1-carbonyl}-pyridin-2-yl)-piperazine-1-carboxylic acid tert-butyl ester] |  | 
11 | 2 | CN(Cc1ccc(C(F)(F)F)c(F)c1)[C@H]1CN(C(=O)c2ccc(N3CCS(=O)(=O)CC3)nc2)C[C@@H]1c1ccc(Cl)c(Cl)c1 (racemic) [Example 64, {(3SR,4RS)-3-(3,4-Dichloro-phenyl)-4-[(3-fluoro-4-trifluoromethyl-benzyl)-methyl-amino]-pyrrolidin-1-yl}-[6-(1,1-dioxo-1-6-thiomorpholin-4-yl)-pyridin-3-yl]-methanone] |  | 
12 | 12.6 | CN(Cc1ccc(C(F)(F)F)c(F)c1)[C@H]1CN(C(=O)c2ccc(C#N)cc2)C[C@@H]1c1ccc(Cl)c(F)c1 (racemic) [Example 66, 4-{(3SR,4RS)-3-(4-Chloro-3-fluoro-phenyl)-4-[(3-fluoro-4-trifluoromethyl-benzyl)-methyl-amino]-pyrrolidine-1-carbonyl}-benzonitrile] |  | 
13 | 4.5 | CN(Cc1ccc(C(F)(F)F)c(F)c1)[C@H]1CN(C(=O)c2ccc(-c3cnco3)cc2)C[C@@H]1c1ccc(Cl)c(Cl)c1 (racemic) [Example 67, {(3SR,4RS)-3-(3,4-Dichloro-phenyl)-4-[(3-fluoro-4-trifluoromethyl-benzyl)-methyl-amino]-pyrrolidin-1-yl}-(4-oxazol-5-yl-phenyl)-methanone] |  | 
14 | 14.6 | CN(Cc1ccc(C(F)(F)F)cc1)[C@H]1CN(C(=O)c2ccc(C#N)cc2)C[C@@H]1c1ccc(Cl)c(Cl)c1 (racemic) [Example 68, 4-{(3SR,4RS)-3-(3,4-Dichloro-phenyl)-4-[methyl-(4-trifluoromethyl-benzyl)-amino]-pyrrolidine-1-carbonyl}-benzonitrile] |  | 
15 |  | CC(=O)N(C)C1(c2ccccc2)CCN(CCC[C@]2(c3ccc(Cl)c(Cl)c3)CCCN(C(=O)c3ccccc3)C2)CC1 [SR 142,801, Osanetant] | active | inactive
